Usually IC50 stands for the point on the concentration scale where inhibition reaches its midpoint.

SMILES strings stand for the structures.

IC50 data for 11 molecules are collected here from ChEMBL document CHEMBL4811261, “Synthesis and biological evaluation of novel benzo[a]pyridazino[3,4-c]phenazine derivatives” (Bioorg Med Chem Lett, 2021).

The test system of test [1] is KB. The experiment in a line: Cytotoxicity against human KB cells assessed as cell viability measured by MTT assay. It counts as functional, cell-based.
Test [2] relates to HepG2. Briefly: Cytotoxicity against human HepG2 cells assessed as cell viability measured by MTT assay. The test is classed as functional, cell-based. A general note: Formazan colour is commonly taken as a measure of viable cells.
Test [3] is described as follows: Cytotoxicity against human Lu1 cells assessed as cell viability measured by MTT assay. The test is classed as functional, cell-based.
The subject of test [4] is MCF7. The experiment in a line: Cytotoxicity against human MCF7 cells assessed as cell viability measured by MTT assay. The test is classed as functional, cell-based.
In test [5] the test system is HEK293. The experiment in a line: Cytotoxicity against human HEK293 cells assessed as cell viability measured by MTT assay. The test is classed as cell-based.
Test [6] deals with Staphylococcus aureus. Briefly: Antibacterial activity against Staphylococcus aureus measured by broth microdilution method. The test is classed as functional, organism-based. (Broth dilution looks for growth in wells or tubes with falling amounts of substance.)
Test [7] concerns Bacillus subtilis. The experiment in a line: Antibacterial activity against Bacillus subtilis measured by broth microdilution method. The test is classed as functional, organism-based.
Test [8] relates to Limosilactobacillus fermentum. Briefly: Antibacterial activity against Lactobacillus fermentum measured by broth microdilution method. It counts as functional, organism-based.
For test [9], the system named is Escherichia. Briefly: Antibacterial activity against Escherichia measured by broth microdilution method. The test is classed as functional, organism-based.
For test [10], the system named is Pseudomonas aeruginosa. The experiment in a line: Antibacterial activity against Pseudomonas aeruginosa measured by broth microdilution method. The test is classed as functional, organism-based.
For test [11], the system named is Salmonella enterica. Briefly: Antibacterial activity against Salmonella enterica measured by broth microdilution method. It counts as functional, organism-based.
Test [12] relates to Candida albicans. Briefly: Antifungal activity against Candida albicans measured by broth microdilution method. It counts as functional, organism-based.

In the case of `CN1N=C(c2ccc(Br)cc2)C(c2ccc(Br)cc2)c2c1c1ccccc1c1nc3ccccc3nc21` (stereo not given), the 50% inhibitory concentration (IC50) is greater than 100 µM in test [1]; greater than 100 µM in test [2]; greater than 100 µM in test [3]; greater than 100 µM in [4]; greater than 100 µM in [5]; 4.21 µM in [6]. In addition, the IC50 in test [7] was 5.91 µM; in test [8] it was greater than 100 µM; in [9], greater than 100 µM; in test [10], greater than 100 µM; in test [11], greater than 100 µM; in test [12], greater than 100 µM.
In the case of `CN1N=C(c2ccc([N+](=O)O)cc2)C(c2ccc([N+](=O)[O-])cc2)c2c1c1ccccc1c1nc3ccccc3nc21` (stereo not given), the IC50 in test [1], in [2], in test [3], in test [4], in test [5] and in test [6] was greater than 100 µM in each case. The IC50 was 77.9 µM in test [7]; greater than 100 µM in test [8]; greater than 100 µM in test [9]; greater than 100 µM in test [10]; greater than 100 µM in [11]; greater than 100 µM in test [12].
With `Cc1c2ccncc2c(C)c2c1[nH]c1ccccc12` [ELLIPTECINE], the IC50 in test [1] turned out to be 1.26 µM; in test [2] it was 1.34 µM; in test [3], 1.83 µM; in test [4] it was 2.48 µM; in [5], 6.58 µM.
Consider `COc1cccc(C2=NN(C)c3c(c4nc5ccccc5nc4c4ccccc34)C2c2cccc(OC)c2)c1` (stereo not given), for which the IC50 is 64.4 µM in test [1]; 36.3 µM in test [2]; 56 µM in test [3]; 70.7 µM in [4]; greater than 100 µM in test [5]; greater than 100 µM in [6]. Also, the IC50 is 90.8 µM in [7]; greater than 100 µM in [8]; greater than 100 µM in [9]; greater than 100 µM in [10]; greater than 100 µM in test [11]; greater than 100 µM in test [12].
In the case of `COc1ccc(C2=NN(C)c3c(c4nc5ccccc5nc4c4ccccc34)C2c2ccc(OC)cc2)cc1` (stereo not given), the IC50 is 16.7 µM in test [1]; 14.6 µM in [2]; 18.2 µM in test [3]; 21.8 µM in [4]; 73.4 µM in [5]; greater than 100 µM in test [6]. The IC50 in test [7], in test [8], in [9], in test [10], in test [11] and in [12] was greater than 100 µM each time.
Turning to `CN1N=C(c2ccc(Cl)cc2)C(c2ccc(Cl)cc2)c2c1c1ccccc1c1nc3ccccc3nc21` (stereo not given), the IC50 in test [1], in test [2], in test [3], in test [4], in test [5] and in test [6] was greater than 100 µM in each case. For the same molecule, the IC50 in test [7], in test [8], in test [9], in test [10], in test [11] and in [12] was greater than 100 µM throughout.
For the molecule `CC1(C)S[C@@H]2[C@H](NC(=O)[C@H](N)c3ccccc3)C(=O)N2[C@H]1C(=O)O` [AMPICILLIN], the 50% inhibitory concentration (IC50) in [6] came to 0.02 µM; in [7], 0.3 µM.
Regarding `CN1N=C(c2ccc3ccccc3c2)C(c2ccc3ccccc3c2)c2c1c1ccccc1c1nc3ccccc3nc21` (stereo not given), the 50% inhibitory concentration (IC50) in [1] was greater than 100 µM; in test [2] it was 81.4 µM; in test [3], greater than 100 µM; in [4] it was greater than 100 µM; in [5], greater than 100 µM; in test [6], greater than 100 µM. For the same molecule, the IC50 in test [7], in [8], in test [9], in [10], in [11] and in test [12] was greater than 100 µM each time.
Consider `CN1N=C(c2ccc(S(C)(=O)=O)cc2)C(c2ccc(S(C)(=O)=O)cc2)c2c1c1ccccc1c1nc3ccccc3nc21` (stereo not given), for which the IC50 in test [1] was 62.5 µM; in test [2] it was 44.7 µM; in [3], greater than 100 µM; in test [4] it was 62.7 µM; in test [5], greater than 100 µM; in test [6], greater than 100 µM. In addition, the IC50 in test [7], in [8], in [9], in test [10], in test [11] and in test [12] was greater than 100 µM in each case.
As to `CN1N=C(c2cccc(Br)c2)C(c2cccc(Br)c2)c2c1c1ccccc1c1nc3ccccc3nc21` (stereo not given), the IC50 in test [1] was greater than 100 µM; in test [2] it was greater than 100 µM; in test [3], greater than 100 µM; in test [4] it was greater than 100 µM; in test [5], greater than 100 µM; in [6] it was 84.4 µM. Besides, the IC50 in test [7] was 84.6 µM; in test [8], greater than 100 µM; in test [9], greater than 100 µM; in [10] it was greater than 100 µM; in [11], greater than 100 µM; in [12], greater than 100 µM.
Turning to `CN1N=C(c2ccccc2)C(c2ccccc2)c2c1c1ccccc1c1nc3ccccc3nc21` (stereo not given), the IC50 in test [1] was 19.4 µM; in test [2] it was 10.5 µM; in test [3] it was 18.6 µM; in [4], 22 µM; in [5], greater than 100 µM; in test [6], greater than 100 µM. The IC50 in test [7], in test [8], in test [9], in test [10], in test [11] and in [12] was greater than 100 µM throughout.
